{
  "source": "patent US20260083848A1",
  "about": "“COMBINATION OF CAR T-CELL THERAPY WITH BTK INHIBITORS AND METHODS OF USE THEREOF” (priority 2021, published 2026)",
  "key": {"CART19 cells [1]": {"system": "CART19 cells", "test": "CART19 proliferation in co-culture with irradiated JeKo-1 cells (absolute CD3+ T cell counts by flow cytometry)", "type": "cell-based, human", "settings": "for toxicity to CART19 cells: in vitro, concentrations up to 10 μM", "method": "CART19 proliferation in the presence of vecabrutinib was evaluated. CART19 cells were cocultured with irradiated JeKo-1 tumor cells at a 1:1 ratio for 24 hours in the presence of 1 μM or 10 μM vecabrutinib. Control co-culture was treated with DMSO vehicle only. Absolute CD3+ T cell counts were measured by flow cytometry.\nCART19 cells were cocultured with irradiated JeKo-1 tumor cells at a 1:1 ratio for 24 hours in the presence of 1 μM or 10 μM. Control co-culture was treated with DMSO only. Absolute CD3+ T cell counts were measured by flow cytometry."}, "[2]": {"system": "pro-inflammatory cytokines in serum", "test": "Phase 1 clinical trial, serum cytokine panel in patients with B cell malignancies", "type": "in vivo, human", "settings": "oral 20.5-410 mg twice daily, 4 weeks post-treatment vs pretreatment", "method": "Human cancer patients having B cell malignancies were administered vecabrutinib in a Phase 1 clinical trial and a cytokine panel was used to evaluate cytokine levels in serum at 4 weeks following administration. Briefly, patients in the clinical trial had Chronic Lymphocytic Leukemia (CLL)/Small Lymphocytic Lymphoma (SLL) or Non Hodgkin's lymphoma (NHL) and had failed prior standard of care therapies. NHL indications included lymphoplasmacytoid lymphoma/Waldenstrom's macroglobulinemia (LPL/WM), mantle cell lymphoma (MCL), marginal zone lymphoma (MZL), diffuse large B-cell lymphoma of the activated B-cell subtype (DLBCL-ABC), and follicular lymphoma (FL). A group of 39 patients were orally administered a dose of 20.5 mg, 41 mg, 82 mg, 164 mg, 246 mg, 328 mg, or 410 mg of vecabrutinib as a capsule twice daily. Serum samples were collected from the patients prior to the start of treatment as 4-weeks post-treatment and analyzed by 38-multiplex (Millipore)."}, "[3]": {"system": "CD19-expressing JeKo-1 tumor cells", "test": "CART19-mediated killing of JeKo-1 tumor cells in in vitro co-culture (bioluminescence)", "type": "cell-based, human", "method": "CART19 cells and JeKo-1 tumor cells were cultured at a 1:1 ratio for 24 hours in the presence of 1 μM or 10 μM vecabrutinib. […] Control of untransduced (UTD) T cell/JeKo-1 co-culture in the presence of 1 μM or 10 μM vecabrutinib was used to determine any tumor cell killing induced by vecabrutinib in the absence of CART19 cells. The percentage of tumor cell killing was measured using bioluminescence imaging, with samples treated with D-luciferin prior to imaging. […] Control co-culture was treated with DMSO only. The percentage of tumor cell killing was measured as described above."}, "wild-type BTK": {"biological_target": "wild-type BTK (Homo sapiens, UniProt Q06187)", "sequence (Q06187 whole entry)": "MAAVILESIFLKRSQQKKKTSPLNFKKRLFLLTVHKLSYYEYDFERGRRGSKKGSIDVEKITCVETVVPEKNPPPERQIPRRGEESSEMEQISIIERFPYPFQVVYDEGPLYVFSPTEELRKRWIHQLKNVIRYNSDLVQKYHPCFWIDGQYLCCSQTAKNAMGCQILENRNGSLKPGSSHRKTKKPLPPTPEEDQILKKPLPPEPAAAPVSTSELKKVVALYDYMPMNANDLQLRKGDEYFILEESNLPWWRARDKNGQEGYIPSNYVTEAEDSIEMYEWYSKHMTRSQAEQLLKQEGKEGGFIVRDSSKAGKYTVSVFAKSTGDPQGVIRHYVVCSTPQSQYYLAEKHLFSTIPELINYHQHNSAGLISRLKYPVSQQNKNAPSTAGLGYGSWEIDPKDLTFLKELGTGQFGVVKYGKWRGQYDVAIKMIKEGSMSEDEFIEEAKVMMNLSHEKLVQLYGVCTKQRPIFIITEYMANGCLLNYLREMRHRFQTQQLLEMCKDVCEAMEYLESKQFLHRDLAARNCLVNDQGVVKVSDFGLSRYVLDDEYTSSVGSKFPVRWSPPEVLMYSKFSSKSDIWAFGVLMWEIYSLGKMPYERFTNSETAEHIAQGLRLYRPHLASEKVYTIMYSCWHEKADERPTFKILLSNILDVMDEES", "settings": "Aslan, et al (2021); cited from earlier work"}, "mutant BTK": {"system": "mutant BTK", "settings": "Aslan, et al (2021); cited from earlier work"}, "CART19 cells [4]": {"system": "CART19 cells", "test": "CART19 cell cytokine production in co-culture with JeKo-1 cells (38-multiplex of supernatants)", "type": "cell-based, human", "settings": "1 μM or 10 μM, 1:1 ratio", "method": "The effect of vecabrutinib treatment on CART19 cell cytokine production was also evaluated. CART19 cells were cocultured with irradiated JeKo-1 tumor cells at a 1:1 ratio for 3 days in the presence of 1 μM or 10 μM vecabrutinib. […] Untransduced T cell/JeKo-1 coculture treated with 1 μM or 10 μM vecabrutinib were used as a negative control as the non-antigen-specific T cells were not expected to undergo activation and cytokine production in the presence of JeKo-1 target cells. Supernatants were harvested and the levels of multiple cytokines and chemokines were analyzed with 38-multiplex (Millipore)."}, "CART19 cells [5]": {"system": "CART19 cells", "test": "CART19 cell degranulation (CD107α by flow cytometry) in co-culture with irradiated JeKo-1 cells", "type": "cell-based, human", "settings": "1 μM or 10 μM, 1:1 ratio, 4 hours; FIG. 3A", "method": "CART19 cells were cocultured with irradiated JeKo-1 tumor cells at a 1:1 ratio for 4 hours in the presence of 1 μM or 10 μM vecabrutinib. […] Untransduced T cell/JeKo-1 co-culture treated with 1 μM or 10 μM vecabrutinib were used as a negative control as the non-antigen-specific T cells were not expected to undergo degranulation in the presence of JeKo-1 target cells. CD107α was used as a marker to quantify degranulation, as this marker becomes part of the cellular membrane and accessible to surface staining with CD107α-specific antibody in degranulating cells. Following coculture, cells were fixed, permeabilized, attained and analyzed for CD107 levels by flow cytometry."}, "[6]": {"system": "CLL patients expressing BTK^C481S", "settings": "Allan, et al (2019); cited from earlier work"}, "[7]": {"system": "JeKo-1 lymphoma xenograft", "test": "JeKo-1 lymphoma xenograft mouse model with CART19 cells", "settings": "50 mg/kg oral gavage twice daily for 4 weeks, in combination with CART19", "method": "The impact of vecabrutinib on CART19 cell anti-tumor effects was evaluated using a JeKo-1 lymphoma xenograft mouse model. To establish the mouse model, NSG mice were inoculated with 1×10^6 luciferase^+ JeKo-1 tumor cells by intravenous injection at day −14. […] Treatment groups received either CART cells with DMSO vehicle or CART cells in combination with 50 mg/kg vecabrutinib. The control group received untransduced T cells with DMSO vehicle. Administration of vecabrutinib or vehicle commenced one day prior to CART19 administration (i.e., day −1), and was given by oral gavage. Untransduced or CART19 were infused by intravenous administration on day 0 at a dose of 1×10^6 cells per animal. Vecabrutinib and vehicle were administered by oral gavage twice daily over a period of 4 weeks. Mice were imaged weekly by IVIS to assess tumor burden. Blood samples were collected from the mice on a weekly basis and the level of circulating CART19 cells was measured by flow cytometry. Mouse weight was also measured on a weekly basis as a measure of treatment toxicity."}},
  "note": "Entries after “also recorded” stand apart in the source; their conditions may differ.",
  "data": [
    {"smiles": "C=CC(=O)N1CCC[C@@H](n2nc(-c3ccc(Oc4ccccc4)cc3)c3c(N)ncnc32)C1", "note": "[ibrutinib, reference compound]", "values": [
      {"measurement": "toxicity to CART19 cells", "setting": "CART19 cells [1]", "result": "toxic; also recorded: dose-dependent toxicity"}
    ]},
    {"smiles": "NC(=O)[C@H]1CCN(c2ncnc(N)c2F)C[C@@H]1N1CCC[C@@H](Nc2cc(Cl)cc(C(F)(F)F)c2)C1=O", "note": "[vecabrutinib, (3R,3′R,4′S)-1′-(6-amino-5-fluoropyrimidin-4-yl)-3-((3-chloro-5-(trifluoromethyl)phenyl)amino)-2-oxo-[1,3′-bipiperidine]-4′-carboxamide]", "values": [
      {"measurement": "serum level of IP-10", "setting": "[2]; FIG. 6A", "result": "significantly decreased"},
      {"measurement": "serum level of MIP-1β", "setting": "[2]; FIG. 6B", "result": "significantly decreased"},
      {"measurement": "serum level of TNFα", "setting": "[2]; FIG. 6C", "result": "significantly decreased"},
      {"measurement": "CART19-mediated killing of Jeko-1 lymphoma cells as compared to ibrutinib", "setting": "[3]; 0.625.1 CART19 to tumor cell ratio, 24 hours, normalized to BTK inhibitor only, FIG. 1B", "result": "significantly potentiated"},
      {"measurement": "killing of CD19-expressing JeKo-1 tumor cells", "setting": "[3]; CART19:JeKo-1 1:1, 24 hours, 1 μM or 10 μM, vs DMSO control, FIG. 1A", "result": "significantly increased"},
      {"measurement": "inhibitory activity against wild-type BTK", "setting": "wild-type BTK", "result": "maintain inhibitory activity"},
      {"measurement": "CART proliferation compared to the DMSO control", "setting": "CART19 cells [1]; 1 μM or 10 μM, 1:1 ratio, 24 hours, FIG. 2A", "result": "comparable"},
      {"measurement": "CART19 proliferation compared to control", "setting": "CART19 cells [1]; 10 μM, 1:1 ratio, 24 hours, FIG. 2A/2B", "result": "increased"},
      {"measurement": "toxicity to CART19 cells", "setting": "CART19 cells [1]", "result": "well-tolerated; also recorded: not toxic"},
      {"measurement": "inhibitory activity against mutant BTK", "setting": "mutant BTK", "result": "maintain inhibitory activity"},
      {"measurement": "IL-6 in supernatant", "setting": "CART19 cells [4]; FIG. 3B", "result": "downregulation"},
      {"measurement": "IL-10 in supernatant", "setting": "CART19 cells [4]; FIG. 3C", "result": "downregulation"},
      {"measurement": "MIP-1β in supernatant", "setting": "CART19 cells [4]; FIG. 3D", "result": "downregulation"},
      {"measurement": "CART19 degranulation (CD107α)", "setting": "CART19 cells [5]", "result": "did not impair"},
      {"measurement": "efficacy in CLL patients expressing BTK^C481S", "setting": "[6]", "result": "has efficacy"},
      {"measurement": "antitumor activity (tumor burden by IVIS) compared to CART19 alone", "setting": "[7]; FIG. 4A", "result": "sustained antitumor activity"},
      {"measurement": "CART19 proliferation (circulating CART19 cells by flow cytometry)", "setting": "[7]; FIG. 4B", "result": "increased"}
    ]}
  ]
}
